Results on 1 cell line are retold here after the supplement of paper PMC10307832.

Assay in all cases: relative viability (nuclei count vs DMSO), 5 days (fraction); higher = more cells survive
Compound in test [1]: C[As](C)SC[C@H](NC(=O)CC[C@H](N)C(=O)O)C(=O)NCC(=O)O [Darinaparsin] + Cc1cc(Nc2cc(N3CCN(C)CC3)nc(Sc3ccc(NC(=O)C4CC4)cc3)n2)n[nH]1 [Tozasertib] (partner 0.1 µM)
The procedure, abridged:
(§1)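 A single step with final 0.05% Triton X-100, 1% formaldehyde and 1 ug/ml Hoechst fixed the cells and stained nuclei 5 days after treatment. Lung cancer cell lines in 1536-well plates had been treated by pin tool the day after seeding with one drug alone or a fixed anchor-drug dose plus five library-drug doses (not always all listed) in √10 steps, and nuclei were counted on 4× images. Relative viability is the ratio of nuclei in treated wells to nuclei in vehicle wells, taken as the median of duplicate plates.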

Compound in test [2]: C[As](C)SC[C@H](NC(=O)CC[C@H](N)C(=O)O)C(=O)NCC(=O)O [Darinaparsin] + CC(=O)Nc1cccc(-n2c(=O)n(C3CC3)c(=O)c3c(Nc4ccc(I)cc4F)n(C)c(=O)c(C)c32)c1 [Trametinib] (partner 0.02 µM)
A digest of the protocol: as §1

Compound in the test “AZ628 + Decitabine”: CC1=C(C=C(C=C1)NC(=O)C2=CC(=CC=C2)C(C)(C)C#N)NC3=CC4=C(C=C3)N=CN(C4=O)C [AZ628] + Nc1ncn([C@H]2C[C@H](O)[C@@H](CO)O2)c(=O)n1 [Decitabine] (partner 2 µM)
The procedure, abridged: as §1

Compound in the test “Darinaparsin + Lapatinib”: C[As](C)SC[C@H](NC(=O)CC[C@H](N)C(=O)O)C(=O)NCC(=O)O [Darinaparsin] + CS(=O)(=O)CCNCc1ccc(-c2ccc3ncnc(Nc4ccc(OCc5cccc(F)c5)c(Cl)c4)c3c2)o1 [Lapatinib] (partner 2 µM)
A digest of the protocol:
as §1

Take LCLC-97TM1: the relative viability in test [1] (first compound 0.08 µM) was found to be 0.215; in test [1] (first compound 0.8 µM), 0.199; in test [1] (first compound 2.53 µM), 0.194; in test [1] (first compound 8 µM), 0.197; in test [2] (first compound 0.08 µM), 0.264; in test [2] (first compound 0.8 µM), 0.237. The relative viability in test [2] (first compound 2.53 µM) worked out at 0.204; in test [2] (first compound 8 µM) it was 0.225; with AZ628 + Decitabine (first compound 0.08 µM) it was 0.276; with AZ628 + Decitabine (first compound 0.253 µM) it was 0.265; in the test with AZ628 + Decitabine (first compound 0.8 µM) it was 0.257; in the test with AZ628 + Decitabine (first compound 2.53 µM) it was 0.199. Besides, the relative viability in the test with AZ628 + Decitabine (first compound 8 µM) came to 0.13; with Darinaparsin + Lapatinib (first compound 0.08 µM), 0.782; with Darinaparsin + Lapatinib (first compound 0.8 µM), 0.579; with Darinaparsin + Lapatinib (first compound 2.53 µM), 0.803; with Darinaparsin + Lapatinib (first compound 8 µM), 0.867.
